Measured values reported in publication PMC12514245, “Impaired migration and lung invasion of human melanoma by a novel small molecule targeting the transmembrane domain of death receptor p75^NTR” (EMBO Molecular Medicine, 2025).

Tested on: A875 shp75 cells
Experiment: Wound healing cell motility assay, A875 shp75
Format: cell-based, human
Protocol: For wound healing assay, cells were grown until confluency and subjected to a wound across the cell mono-layer. Cells were then incubated with serum-free media either with DMSO or a small molecule (with or without 5 µM Q_VD_poH) and imaged at specific time-points. Cell migration is reflected as fold change in wound area over time.

Cc1cccc(-c2cncc(Nc3ccc(Br)c(Cl)c3Cl)n2)c1C [Np75-4A22]
Wound area (Fold) (A875 shp75, 1uM, 6 h, Mean): 0.862 Fold
Wound area (Fold) (A875 shp75, 1uM, 6 h, n1): 0.849 Fold
Wound area (Fold) (A875 shp75, 1uM, 6 h, n2): 0.873 Fold
Wound area (Fold) (A875 shp75, 1uM, 6 h, n3): 0.864 Fold
Wound area (Fold) (A875 shp75, 1uM, 9 h, Mean): 0.807 Fold
Wound area (Fold) (A875 shp75, 1uM, 9 h, n1): 0.787 Fold
Wound area (Fold) (A875 shp75, 1uM, 9 h, n2): 0.829 Fold
Wound area (Fold) (A875 shp75, 1uM, 9 h, n3): 0.805 Fold
Wound area (Fold) (A875 shp75, 1uM, 12 h, Mean): 0.763 Fold
Wound area (Fold) (A875 shp75, 1uM, 12 h, n1): 0.742 Fold
Wound area (Fold) (A875 shp75, 1uM, 12 h, n2): 0.785 Fold
Wound area (Fold) (A875 shp75, 1uM, 12 h, n3): 0.763 Fold
Wound area (Fold) (A875 shp75, 1uM, 15 h, Mean): 0.718 Fold
Wound area (Fold) (A875 shp75, 1uM, 15 h, n1): 0.696 Fold
Wound area (Fold) (A875 shp75, 1uM, 15 h, n2): 0.752 Fold
Wound area (Fold) (A875 shp75, 1uM, 15 h, n3): 0.705 Fold
Wound area (Fold) (A875 shp75, 1uM, 18 h, Mean): 0.698 Fold
Wound area (Fold) (A875 shp75, 1uM, 18 h, n1): 0.664 Fold
Wound area (Fold) (A875 shp75, 1uM, 18 h, n2): 0.709 Fold
Wound area (Fold) (A875 shp75, 1uM, 18 h, n3): 0.721 Fold
Wound area (Fold) (A875 shp75, 1uM, 21 h, Mean): 0.669 Fold
Wound area (Fold) (A875 shp75, 1uM, 21 h, n1): 0.640 Fold
Wound area (Fold) (A875 shp75, 1uM, 21 h, n2): 0.695 Fold
Wound area (Fold) (A875 shp75, 1uM, 21 h, n3): 0.673 Fold
Wound area (Fold) (A875 shp75, 1uM, 24 h, Mean): 0.638 Fold
Wound area (Fold) (A875 shp75, 1uM, 24 h, n1): 0.601 Fold
Wound area (Fold) (A875 shp75, 1uM, 24 h, n2): 0.671 Fold
Wound area (Fold) (A875 shp75, 1uM, 24 h, n3): 0.643 Fold
Wound area (Fold) (A875 shp75, 2uM, 0 h, Mean): 1.000 Fold
Wound area (Fold) (A875 shp75, 2uM, 0 h, n1): 0.9754 Fold
Wound area (Fold) (A875 shp75, 2uM, 0 h, n2): 1.0649 Fold
Wound area (Fold) (A875 shp75, 2uM, 0 h, n3): 0.9597 Fold
Wound area (Fold) (A875 shp75, 2uM, 3 h, Mean): 0.910 Fold
Wound area (Fold) (A875 shp75, 2uM, 3 h, n1): 0.9076 Fold
Wound area (Fold) (A875 shp75, 2uM, 3 h, n2): 0.9176 Fold
Wound area (Fold) (A875 shp75, 2uM, 3 h, n3): 0.9063 Fold
Wound area (Fold) (A875 shp75, 2uM, 6 h, Mean): 0.853 Fold
Wound area (Fold) (A875 shp75, 2uM, 6 h, n1): 0.8581 Fold
Wound area (Fold) (A875 shp75, 2uM, 6 h, n2): 0.8655 Fold
Wound area (Fold) (A875 shp75, 2uM, 6 h, n3): 0.836 Fold
Wound area (Fold) (A875 shp75, 2uM, 9 h, Mean): 0.814 Fold
Wound area (Fold) (A875 shp75, 2uM, 9 h, n1): 0.821 Fold
Wound area (Fold) (A875 shp75, 2uM, 9 h, n2): 0.8359 Fold
Wound area (Fold) (A875 shp75, 2uM, 9 h, n3): 0.7843 Fold
Wound area (Fold) (A875 shp75, 2uM, 12 h, Mean): 0.777 Fold
Wound area (Fold) (A875 shp75, 2uM, 12 h, n1): 0.789 Fold
Wound area (Fold) (A875 shp75, 2uM, 12 h, n2): 0.7939 Fold
Wound area (Fold) (A875 shp75, 2uM, 12 h, n3): 0.7491 Fold
Wound area (Fold) (A875 shp75, 2uM, 15 h, Mean): 0.752 Fold
Wound area (Fold) (A875 shp75, 2uM, 15 h, n1): 0.7699 Fold
Wound area (Fold) (A875 shp75, 2uM, 15 h, n2): 0.7822 Fold
Wound area (Fold) (A875 shp75, 2uM, 15 h, n3): 0.7049 Fold
Wound area (Fold) (A875 shp75, 2uM, 18 h, Mean): 0.727 Fold
Wound area (Fold) (A875 shp75, 2uM, 18 h, n1): 0.7451 Fold
Wound area (Fold) (A875 shp75, 2uM, 18 h, n2): 0.762 Fold
Wound area (Fold) (A875 shp75, 2uM, 18 h, n3): 0.6733 Fold
Wound area (Fold) (A875 shp75, 2uM, 21 h, Mean): 0.692 Fold
Wound area (Fold) (A875 shp75, 2uM, 21 h, n1): 0.7162 Fold
Wound area (Fold) (A875 shp75, 2uM, 21 h, n2): 0.7095 Fold
Wound area (Fold) (A875 shp75, 2uM, 21 h, n3): 0.6489 Fold
Wound area (Fold) (A875 shp75, 2uM, 24 h, Mean): 0.665 Fold
Wound area (Fold) (A875 shp75, 2uM, 24 h, n1): 0.7012 Fold
Wound area (Fold) (A875 shp75, 2uM, 24 h, n2): 0.6688 Fold
Wound area (Fold) (A875 shp75, 2uM, 24 h, n3): 0.6256 Fold
